From patent US20110034469A1, “Heterocyclic Compound” (TAKEDA PHARMACEUTICAL COMPANY LIMITED, priority 2009, published 2011)
Where a name gives a salt, the structure may show the parent alone.

Legend:
[1] = system: human breast cancer cell MDA-MB-231-Luc; assay: In vivo breast cancer cell tumor regression activity; settings: orally 100 mg/kg, twice per day for 14 days; subcutaneous MDA-MB-231-Luc tumor in female nude mouse
Procedure: MDA-MB-231 cells (American Tissue Culture Collection) were suspended in DMEM medium (Invitrogen) containing 10% fetal bovine serum (Cell Culture Bioscience), plated in a 12-well plate at 1×10^5 cells/mL, each well 1 mL, and the cells were cultured. After 24 hr of culture, the medium was removed, 100 μL of OMEM (Invitrogen) containing […] of pGL4 CMV-luc/Neo plasmid and Lipofectamin LTX (Invitrogen) was added to each well for transfection according to the attached instruction manual. After the plasmid DNA introduction is operation for 25 min., the medium was exchanged with DMEM medium, and the cells were further cultured for 72 hr. The introduced cells were suspended in a medium containing […] G418 (Sigma Ltd.) by a trypsin (Invitrogen) treatment, and plated again in a 6-well plate. […] Finally, MDA-MB-231 cells capable of growing in a medium containing […] G418 were treated by a limit dilution method to give a single colony. Luciferin (Promega) was added to MDA-MB-231 cells in each clone, and the chemical luminescence level was measured using ARVO (PerkinElmer) to give MDA-MB-231-Luc.
The human breast cancer cell MDA-MB-231-Luc ([…]) obtained in Experimental Example 5 were suspended in Matrigel solution (BD Bioscience) and transplanted into 6-week-old BALE/c female nude mouse (CLEA Japan, Inc.) by subcutaneous injection. Mice with a tumor engrafted at a size in tumor volume of about 200 mm^3 on day 12-15 post-transplantation were selected and 5 per group were used for the experiment. A 0.5% methylcellulose (Wako Pure Chemical Industries, Ltd.) suspension or 0.1 M PBS solution (NaH2PO4/Na2HPO4, pH 5.8) of the compound was orally administered at a dose of 100 mg/kg, twice per day for 14 days. The tumor diameter was measured on the day of start of the administration and the day of completion of the administration, and the tumor volume was obtained from formula 1.
tumor volume=long diameter×short diameter×short diameter×(½) formula 1
The ratio of the value obtained by subtracting tumor volume on the day of completion of the administration from that on the day of start of the administration to the tumor volume on the day of start of the administration was obtained as a tumor regression rate from the formula 2.
tumor regression rate (%)=(tumor volume on the day of start of administration−tumor volume on the day of completion of administration)/tumor volume on the day of start of administration×100 formula 2

[2] = target: human XIAP_BIR3 domain purified protein (Homo sapiens, UniProt P98170); assay: Human XIAP binding inhibitory activity (HTRF, b-Smac ligand); settings: read-out: XIAP binding inhibitory rate (%) at 3 μM of the test compound
Sequence of human XIAP_BIR3 domain purified protein (P98170 252-356 limits assumed): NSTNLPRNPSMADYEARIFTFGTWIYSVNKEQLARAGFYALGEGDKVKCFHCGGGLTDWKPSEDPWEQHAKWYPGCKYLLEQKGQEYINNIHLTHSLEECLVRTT

| Compound | tumor regression rate (%) [1] | inhibition at 3 µM [2] |
| --- | --- | --- |
| CN[C@@H](C)C(=O)N[C@H](C(=O)N1C[C@H]2CCCN2C[C@H]1C(=O)N[C@@H]1CCOc2ccccc21)C1CCC(F)(F)CC1.Cl.Cl [Example 32, (3S,8aR)-2-{(2S)-2-(4,4-difluorocyclohexyl)-2-[(N-methyl-L-alanyl)amino]acetyl}-N-[(4R)-3,4-dihydro-2H-chromen-4-yl]octahydropyrrolo[1,2-a]pyrazine-3-carboxamide dihydrochloride] | 61% |  |
| CCO[C@@H]1C[C@@H]2CN(C(=O)[C@@H](NC(=O)[C@H](CC)NC)C3CCC(F)(F)CC3)[C@H](C(=O)N[C@@H]3CCOc4ccccc43)CN2C1 [Example 127, (3S,7R,8aR)-2-[(2S)-2-(4,4-difluorocyclohexyl)-2-{[(2S)-2-(methylamino)butanoyl]amino}acetyl]-N-[(4R)-3,4-dihydro-2H-chromen-4-yl]-7-ethoxyoctahydropyrrolo[1,2-a]pyrazine-3-carboxamide] |  | 98% |
| CN[C@@H](C)C(=O)N[C@H](C(=O)N1C[C@H]2CCCN2C[C@H]1C(=O)N[C@H]1c2ccccc2C[C@@H]1O)C1CCCCC1.Cl.Cl [Example 26, (3S,8aR)-2-{(2S)-2-cyclohexyl-2-[(N-methyl-L-alanyl)amino]acetyl}-N-[(1S,2S)-2-hydroxy-2,3-dihydro-1H-inden-1-yl]octahydropyrrolo[1,2-a]pyrazine-3-carboxamide dihydrochloride] | 41% |  |
| CN[C@@H](C)C(=O)N[C@H](C(=O)N1C[C@H]2C[C@@H](OCC3CC3)CN2C[C@H]1C(=O)N[C@@H]1CCOc2ccccc21)C1CCCCC1 [Example 82, (3S,7R,8aR)-2-{(2S)-2-cyclohexyl-2-[(N-methyl-L-alanyl)amino]acetyl}-7-(cyclopropylmethoxy)-N-[(4R)-3,4-dihydro-2H-chromen-4-yl]octahydropyrrolo[1,2-a]pyrazine-3-carboxamide] |  | 96.6% |
| CCO[C@@H]1C[C@@H]2CN(C(=O)[C@@H](NC(=O)[C@H](C)NC)C3CCC(F)(F)CC3)[C@H](C(=O)N[C@@H]3CCOc4ccccc43)CN2C1 [Example 23, (3S,7R,8aR)-2-{(2S)-2-(4,4-difluorocyclohexyl)-2-[(N-methyl-L-alanyl)amino]acetyl}-N-[(4R)-3,4-dihydro-2H-chromen-4-yl]-7-ethoxyoctahydropyrrolo[1,2-a]pyrazine-3-carboxamide] | 74% |  |
| CCO[C@@H]1C[C@@H]2CN(C(=O)[C@@H](NC(=O)[C@H](CC)NC)C3CCCCC3)[C@H](C(=O)N[C@@H]3CCOc4ccccc43)CN2C1 [Example 91, (3S,7R,8aR)-2-[(2S)-2-cyclohexyl-2-{[(2S)-2-(methylamino)butanoyl]amino}acetyl]-N-[(4R)-3,4-dihydro-2H-chromen-4-yl]-7-ethoxyoctahydropyrrolo[1,2-a]pyrazine-3-carboxamide] |  | 95.5% |
| CN[C@@H](C)C(=O)N[C@H](C(=O)N1C[C@H]2C[C@@](C)(O)CN2C[C@H]1C(=O)N[C@@H]1CCOc2ccccc21)C1CCCCC1 [Example 41, (3S,7R,8aR)-2-{(2S)-2-cyclohexyl-2-[(N-methyl-L-alanyl)amino]acetyl}-N-[(4R)-3,4-dihydro-2H-chromen-4-yl]-7-hydroxy-7-methyloctahydropyrrolo[1,2-a]pyrazine-3-carboxamide dihydrochloride] |  | 93.5% |
| CN[C@@H](C)C(=O)N[C@@H](CCCNC(=O)OCc1ccccc1)C(=O)N1C[C@H]2CCCN2C[C@H]1C(=O)N[C@@H]1CCCc2ccccc21 [Example 5, benzyl{(4S)-4-[(N-methyl-L-alanyl)amino]-5-oxo-5-[(3S,8aR)-3-((1R)-1,2,3,4-tetrahydronaphthalen-1-ylcarbamoyl)hexahydropyrrolo[1,2-a]pyrazin-2(1H)-yl]pentyl}carbamate dihydrochloride] |  | 99.2% |
| CN[C@@H](C)C(=O)N[C@@H](CCCCNC(=O)OCc1ccccc1)C(=O)N1C[C@H]2CCCN2C[C@H]1C(=O)N[C@@H]1CCCc2ccccc21 [Example 6, benzyl{(5S)-5-[(N-methyl-L-alanyl)amino]-6-oxo-6-[(3S,8aR)-3-[(1R)-1,2,3,4-tetrahydronaphthalen-1-ylcarbamoyl]hexahydropyrrolo[1,2-a]pyrazin-2(1H)-yl]hexyl}carbamate dihydrochloride] |  | 98.8% |
| CN[C@@H](C)C(=O)N[C@H](C(=O)N1C[C@H]2CCCN2C[C@H]1C(=O)N[C@@H]1CCOc2cc(F)cc(F)c21)C1CCCCC1 [Example 24, (3S,8aR)-2-{(2S)-2-cyclohexyl-2-[(N-methyl-L-alanyl)amino]acetyl}-N-[(4R)-5,7-difluoro-3,4-dihydro-2H-chromen-4-yl]octahydropyrrolo[1,2-a]pyrazine-3-carboxamide dihydrochloride] | 55% | 97.3% |
| CN[C@@H](C)C(=O)N[C@H](C(=O)N1C[C@H]2CC(F)(F)CN2C[C@H]1C(=O)N[C@@H]1CCOc2ccccc21)C1CCCCC1 [Example 50, (3S,8aR)-2-{(2S)-2-cyclohexyl-2-[(N-methyl-L-alanyl)amino]acetyl}-N-[(4R)-3,4-dihydro-2H-chromen-4-yl]-7,7-difluorooctahydropyrrolo[1,2-a]pyrazine-3-carboxamide dihydrochloride] |  | 97.1% |
| CN[C@@H](C)C(=O)N[C@@H](CCCCNC(=O)CCCCCCCCC(=O)NCCCC[C@H](NC(=O)[C@H](C)NC)C(=O)N1C[C@H]2CCCN2C[C@H]1C(=O)N[C@@H]1CCCc2ccccc21)C(=O)N1C[C@H]2CCCN2C[C@H]1C(=O)N[C@@H]1CCCc2ccccc21 [Example 126, N,N′-bis{(5S)-5-[(N-methyl-L-alanyl)amino]-6-oxo-6-[(3S,8aR)-3-[(1R)-1,2,3,4-tetrahydronaphthalen-1-ylcarbamoyl]hexahydropyrrolo[1,2-a]pyrazin-2(1H)-yl]hexyl}decanediamide] |  | 99% |
| CN[C@@H](C)C(=O)N[C@@H](CCCCNC(=O)c1ccc(C(=O)NCCCC[C@H](NC(=O)[C@H](C)NC)C(=O)N2C[C@H]3CCCN3C[C@H]2C(=O)N[C@@H]2CCCc3ccccc32)cc1)C(=O)N1C[C@H]2CCCN2C[C@H]1C(=O)N[C@@H]1CCCc2ccccc21 [Example 125, N,N′-bis{(5S)-5-[(N-methyl-L-alanyl)amino]-6-oxo-6-[(3S,8aR)-3-[(1R)-1,2,3,4-tetrahydronaphthalen-1-ylcarbamoyl]hexahydropyrrolo[1,2-a]pyrazin-2(1H)-yl]hexyl}benzene-1,4-dicarboxamide] |  | 98.9% |
| CN[C@@H](C)C(=O)N[C@H](C(=O)N1C[C@H]2CCCN2C[C@H]1C(=O)N[C@@H]1CCOc2ccccc21)c1ccccc1.Cl.Cl [Example 19, (3S,8aR)—N-[(4R)-3,4-dihydro-2H-chromen-4-yl]-2-{(2S)-2-[(N-methyl-L-alanyl)amino]-2-phenylacetyl}octahydropyrrolo[1,2-a]pyrazine-3-carboxamide dihydrochloride] | 64% |  |
| CCO[C@@H]1C[C@@H]2CN(C(=O)[C@@H](NC(=O)[C@H](C)NC)C3CCCCC3)[C@H](C(=O)N[C@@H]3CCOc4ccccc43)CN2C1 [Example 18, (3S,7R,8aR)-2-{(2S)-2-cyclohexyl-2-[(N-methyl-L-alanyl)amino]acetyl}-N-[(4R)-3,4-dihydro-2H-chromen-4-yl]-7-ethoxyoctahydropyrrolo[1,2-a]pyrazine-3-carboxamide] | 78% | 99.6% |
| CN[C@@H](C)C(=O)N[C@H](C(=O)N1C[C@H]2CCCN2C[C@H]1C(=O)N[C@H]1c2ccccc2C[C@H]1O)C1CCCCC1 [Example 27, (3S,8aR)-2-{(2S)-2-cyclohexyl-2-[(N-methyl-L-alanyl)amino]acetyl}-N-[(1S,2R)-2-hydroxy-2,3-dihydro-1H-inden-1-yl]octahydropyrrolo[1,2-a]pyrazine-3-carboxamide dihydrochloride] |  | 97.2% |
